In patent US20250368666A1, “INDAZOLE COMPOUNDS” (TYRA BIOSCIENCES, INC., priority 2022, published 2025):
Like-named read-outs stand apart in the source and are kept apart here.

What was measured:
Assay in all cases: Kinase binding assay (kinase-tagged T7 phage, affinity beads, qPCR), Kd
FGFR1 = target: T1, FGFR1 (Homo sapiens, UniProt P11362); details: read-out: FGFR1 (Kd nM)
T1 construct: made in house; host or cells: E. coli (BL21-derived), T7 phage
Procedure: (§1) Kinase-tagged T7 phage strains were prepared in an E. coli host derived from the BL21 strain. E. coli were grown to log-phase and infected with T7 phage and incubated with shaking at 32° C. until lysis. The lysates were centrifuged and filtered to remove cell debris. Streptavidin-coated magnetic beads were treated with biotinylated small molecule ligands for 30 minutes at room temperature to generate affinity resins for kinase assays. The liganded beads were blocked with excess biotin and washed with blocking buffer SeaBlock (Pierce), 1% BSA, 0.05% Tween 20, 1 mM DTT to remove unbound ligand and to reduce non-specific binding.
(§2) Test compounds were prepared as 111× stocks in 100% DMSO. Kds were determined using an 11-point 3-fold compound dilution series with three DMSO control points. […] The compounds were then diluted directly into the assays such that the final concentration of DMSO was 0.9%. All reactions performed in polypropylene 384-well plate. Each was a final volume of 0.02 ml. […] The kinase concentration in the eluates was measured by qPCR.
(§3) Binding constants were calculated with a standard dose-response curve using the Hill equation: […]
(§4) The Hill Slope was set to −1. Curves were fitted using a non-linear least square fit with the Levenberg-Marquardt algorithm.

FGFR4 = target: T2, FGFR4 (Homo sapiens, UniProt P22455); details: read-out: FGFR4 (Kd nM)
T2 construct: made in house; host or cells: E. coli (BL21-derived), T7 phage
Procedure: as §1, §2, §3, §4

FGFR3 (V555M) = target: T3, FGFR3 (V555M) (Homo sapiens, UniProt P22607, V555M); details: V555M mutant; read-out: FGFR3 (V555M) (Kd nM)
T3 construct: made in house; host or cells: E. coli (BL21-derived), T7 phage
Procedure: as §1, §2, §3, §4

FGFR3 = target: T4, FGFR3 (Homo sapiens, UniProt P22607); details: read-out: FGFR3 (Kd nM)
T4 construct: made in house; host or cells: E. coli (BL21-derived), T7 phage
Procedure: as §1, §2, §3, §4

FGFR2 = target: T5, FGFR2 (Homo sapiens, UniProt P21802); details: read-out: FGFR2 (Kd nM)
T5 construct: made in house; host or cells: E. coli (BL21-derived), T7 phage
Procedure: as §1, §2, §3, §4

[1] = kinase binding assay, 11-point 3-fold dilution series

T1 sequence (P11362 22-822): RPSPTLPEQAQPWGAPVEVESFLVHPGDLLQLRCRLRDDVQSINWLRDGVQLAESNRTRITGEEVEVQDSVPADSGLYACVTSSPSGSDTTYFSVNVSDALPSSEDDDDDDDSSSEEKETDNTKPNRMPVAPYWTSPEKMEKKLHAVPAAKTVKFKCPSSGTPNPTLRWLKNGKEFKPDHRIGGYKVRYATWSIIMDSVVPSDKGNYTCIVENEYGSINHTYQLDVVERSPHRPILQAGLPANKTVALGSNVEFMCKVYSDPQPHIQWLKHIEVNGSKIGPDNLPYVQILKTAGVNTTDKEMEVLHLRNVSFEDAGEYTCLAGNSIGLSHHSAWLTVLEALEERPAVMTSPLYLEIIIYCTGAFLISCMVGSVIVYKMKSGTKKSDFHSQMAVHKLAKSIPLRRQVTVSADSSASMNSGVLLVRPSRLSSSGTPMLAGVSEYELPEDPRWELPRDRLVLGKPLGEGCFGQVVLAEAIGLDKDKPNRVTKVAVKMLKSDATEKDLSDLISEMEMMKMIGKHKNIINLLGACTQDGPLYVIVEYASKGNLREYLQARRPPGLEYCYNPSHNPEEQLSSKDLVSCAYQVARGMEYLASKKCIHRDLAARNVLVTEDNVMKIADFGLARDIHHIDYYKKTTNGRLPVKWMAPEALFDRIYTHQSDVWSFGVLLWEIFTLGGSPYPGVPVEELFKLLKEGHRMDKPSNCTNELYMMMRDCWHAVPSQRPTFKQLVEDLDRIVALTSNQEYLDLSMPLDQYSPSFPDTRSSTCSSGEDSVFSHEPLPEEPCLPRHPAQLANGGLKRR
T2 sequence (P22455 22-802): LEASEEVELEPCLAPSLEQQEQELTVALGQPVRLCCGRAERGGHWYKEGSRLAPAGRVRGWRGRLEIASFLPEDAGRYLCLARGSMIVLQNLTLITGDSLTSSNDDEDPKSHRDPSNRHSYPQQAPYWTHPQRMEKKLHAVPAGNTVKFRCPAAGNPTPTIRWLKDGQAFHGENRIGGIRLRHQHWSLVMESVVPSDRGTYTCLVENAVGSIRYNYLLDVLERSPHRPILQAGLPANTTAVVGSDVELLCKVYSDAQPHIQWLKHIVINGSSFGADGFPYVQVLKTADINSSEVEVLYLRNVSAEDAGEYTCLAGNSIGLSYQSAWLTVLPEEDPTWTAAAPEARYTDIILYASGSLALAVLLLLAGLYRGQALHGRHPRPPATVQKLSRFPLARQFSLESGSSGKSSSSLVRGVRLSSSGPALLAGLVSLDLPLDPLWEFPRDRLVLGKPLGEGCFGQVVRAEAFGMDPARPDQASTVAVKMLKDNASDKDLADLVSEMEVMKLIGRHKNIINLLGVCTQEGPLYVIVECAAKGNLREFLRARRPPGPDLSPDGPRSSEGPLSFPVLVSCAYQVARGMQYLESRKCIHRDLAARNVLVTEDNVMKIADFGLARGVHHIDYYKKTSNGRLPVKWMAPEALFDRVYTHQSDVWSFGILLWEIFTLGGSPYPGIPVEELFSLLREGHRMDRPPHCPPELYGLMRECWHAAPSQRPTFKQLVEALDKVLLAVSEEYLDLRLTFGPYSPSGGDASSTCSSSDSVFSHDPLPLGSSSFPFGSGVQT
T5 sequence (P21802 22-821): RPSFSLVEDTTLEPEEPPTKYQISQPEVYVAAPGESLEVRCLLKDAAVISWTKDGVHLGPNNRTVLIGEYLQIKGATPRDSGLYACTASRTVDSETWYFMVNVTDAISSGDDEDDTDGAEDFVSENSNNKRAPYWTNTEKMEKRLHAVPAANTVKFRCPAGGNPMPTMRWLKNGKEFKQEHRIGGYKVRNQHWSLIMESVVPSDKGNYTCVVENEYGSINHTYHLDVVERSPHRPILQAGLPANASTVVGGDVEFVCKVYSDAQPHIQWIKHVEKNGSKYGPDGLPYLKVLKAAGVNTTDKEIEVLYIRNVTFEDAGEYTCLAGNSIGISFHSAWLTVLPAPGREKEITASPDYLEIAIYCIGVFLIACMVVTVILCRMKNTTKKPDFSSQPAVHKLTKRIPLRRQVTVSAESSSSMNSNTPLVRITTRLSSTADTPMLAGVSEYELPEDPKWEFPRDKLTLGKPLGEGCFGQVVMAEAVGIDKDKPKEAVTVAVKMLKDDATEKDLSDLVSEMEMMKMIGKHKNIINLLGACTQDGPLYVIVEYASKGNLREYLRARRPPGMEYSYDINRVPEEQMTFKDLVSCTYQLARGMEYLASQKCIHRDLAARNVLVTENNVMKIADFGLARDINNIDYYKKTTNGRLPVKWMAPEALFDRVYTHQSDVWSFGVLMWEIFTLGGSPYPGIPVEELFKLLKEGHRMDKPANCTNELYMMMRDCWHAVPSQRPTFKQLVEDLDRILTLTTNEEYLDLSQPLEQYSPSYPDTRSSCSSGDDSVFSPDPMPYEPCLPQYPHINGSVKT
T3 sequence (P22607 23-806 V555M): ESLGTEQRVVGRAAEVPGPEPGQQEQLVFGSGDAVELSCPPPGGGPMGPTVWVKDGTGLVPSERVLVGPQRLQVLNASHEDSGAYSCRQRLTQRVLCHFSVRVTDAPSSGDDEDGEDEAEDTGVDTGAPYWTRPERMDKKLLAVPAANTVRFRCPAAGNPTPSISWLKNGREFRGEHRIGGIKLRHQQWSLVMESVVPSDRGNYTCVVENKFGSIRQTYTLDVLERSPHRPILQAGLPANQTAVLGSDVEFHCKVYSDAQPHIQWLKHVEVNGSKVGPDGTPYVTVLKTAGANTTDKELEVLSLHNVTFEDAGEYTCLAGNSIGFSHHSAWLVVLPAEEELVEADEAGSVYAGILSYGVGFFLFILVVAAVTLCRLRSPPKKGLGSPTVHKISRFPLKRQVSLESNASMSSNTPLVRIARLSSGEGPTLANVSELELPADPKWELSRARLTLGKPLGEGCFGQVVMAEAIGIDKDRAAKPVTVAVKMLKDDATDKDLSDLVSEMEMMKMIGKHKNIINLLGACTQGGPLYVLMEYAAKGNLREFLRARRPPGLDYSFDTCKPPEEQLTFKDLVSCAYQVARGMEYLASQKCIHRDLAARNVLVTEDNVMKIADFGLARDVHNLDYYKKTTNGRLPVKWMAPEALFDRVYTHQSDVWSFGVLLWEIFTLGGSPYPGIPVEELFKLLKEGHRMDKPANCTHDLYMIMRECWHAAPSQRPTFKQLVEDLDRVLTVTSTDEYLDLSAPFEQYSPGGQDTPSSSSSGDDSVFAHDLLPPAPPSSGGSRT
T4 sequence (P22607 23-806): as the sequence (P22607 23-806 V555M) above, with M533V counted along it

Row | Compound | Kd (FGFR1) | Kd (FGFR4) | Kd (FGFR3 (V555M)) | Kd (FGFR3) | Kd (FGFR2) | Kd (FGFR1; [1]) | Kd (FGFR3; [1])
1 | 3-[6-[3-(cyclobutoxy)- 3-methyl-azetidin-1- yl]-3-pyridy1]-5-[(1R)- 1-(3,5-dichloro-2- methyl-4- pyridyl)ethoxy]-1H- indazole [Example 75] | 300 to 1000 nM | 50 to 300 nM | 1 to 50 nM | 1 to 50 nM | 50 to 300 nM |  | 
2 | C[C@@H](Oc1ccc2[nH]nc(-c3cnc(N4CC(C)(NC5CCC5)C4)c(C#N)c3)c2c1)c1c(Cl)cncc1Cl [Example 2, (R)-2-(3-(cyclobutylamino)-3-methylazetidin-1-yl)-5-(5-(1-(3,5-dichloropyridin-4-yl)ethoxy)-1H-indazol-3-yl)nicotinonitrile] | 50 to 300 nM | 1 to 50 nM | 1 to 50 nM | 1 to 50 nM | 50 to 300 nM |  | 
3 | COc1cc2[nH]nc(-c3cnc(N4CC5(CC5)C4)c(C#N)c3)c2cc1O[C@H](C)c1c(Cl)cncc1Cl [Example 3, (R)-5-(5-(1-(3,5-dichloropyridin-4-yl)ethoxy)-6-methoxy-1H-indazol-3-yl)-2-(5-azaspiro[2.3]hexan-5-yl)nicotinonitrile] | 50 to 300 nM | 1 to 50 nM | 1 to 50 nM | 1 to 50 nM | 300 to 1000 nM |  | 
4 | C[C@@H](Oc1cc2c(-c3cnc(N4CC5(CC5)C4)c(C#N)c3)n[nH]c2cc1F)c1c(Cl)cncc1Cl [Example 5, (R)-5-(5-(1-(3,5-Dichloropyridin-4-yl)ethoxy)-6-fluoro-1H-indazol-3-yl)-2-(5-azaspiro[2.3]hexan-5-yl)nicotinonitrile] | > 1000 nM | 1 to 50 nM | 50 to 300 nM | 50 to 300 nM | > 1000 nM |  | 
5 | CCNC1(C)CN(c2ncc(-c3n[nH]c4ccc(O[C@H](C)c5c(Cl)cnc(C)c5Cl)cc34)cc2C#N)C1 [Example 40, 5-[5-[(1R)-1-(3,5-dichloro-2-methyl-4-pyridyl)ethoxy]-1H-indazol-3-yl]-2-[3-(ethylamino)-3-methyl-azetidin-1-yl]pyridine-3-carbonitrile] | 50 to 300 nM | 1 to 50 nM | 1 to 50 nM | 1 to 50 nM | 50 to 300 nM |  | 
6 | COc1cc2[nH]nc(-c3cnc(N4CCC4)c(F)c3)c2cc1O[C@H](C)c1c(Cl)cnc(C)c1Cl [Example 58, 3-[6-(azetidin-1-yl)-5-fluoro-3-pyridyl]-5-[(1R)-1-(3,5-dichloro-2-methyl-4-pyridyl)ethoxy]-6-methoxy-1H-indazole] | 50 to 300 nM | 1 to 50 nM | 1 to 50 nM | 1 to 50 nM | 1 to 50 nM |  | 
7 | C[C@@H](Oc1cc2c(-c3ccc(N4CC(C)(NC5CCC5)C4)nc3)n[nH]c2cc1F)c1c(Cl)cncc1Cl [Example 68, N-cyclobutyl-1-[5-[5-[(1R)-1-(3,5-dichloro-4-pyridyl)ethoxy]-6-fluoro-1H-indazol-3-yl]-2-pyridyl]-3-methyl-azetidin-3-amine] | 1 to 50 nM | 1 to 50 nM | 1 to 50 nM | 1 to 50 nM | 1 to 50 nM |  | 
8 | C[C@@H](Oc1ccc2[nH]nc(-c3ccc(N4CC(C)(CNS(C)(=O)=O)C4)nc3)c2c1)c1c(Cl)cncc1Cl [Example 69, (R)-N-((1-(5-(5-(1-(3,5-dichloropyridin-4-yl)ethoxy)-1H-indazol-3-yl)pyridin-2-yl)-3-methylazetidin-3-yl)methyl)methane-sulfonamide] | 1 to 50 nM | 1 to 50 nM | 1 to 50 nM | 1 to 50 nM | 1 to 50 nM |  | 
9 | COCCN(C)C1(C)CN(c2ncc(-c3n[nH]c4ccc(O[C@H](C)c5c(Cl)cncc5Cl)cc34)cn2)C1 [Example 79, (R)-1-(5-(5-(1-(3,5-dichloropyridin-4-yl)ethoxy)-1H-indazol-3-yl)pyrimidin-2-yl)-N-(2-methoxyethyl)-N,3-dimethylazetidin-3-amine] | 1 to 50 nM | 1 to 50 nM | 1 to 50 nM | 1 to 50 nM | 1 to 50 nM |  | 
10 | COc1cc2[nH]nc(-c3cnc(N4CC(C)(CNC(C)C)C4)nc3)c2cc1O[C@H](C)c1c(Cl)cncc1Cl [Example 84, (R)-N-((1-(5-(5-(1-(3,5-dichloropyridin-4-yl)ethoxy)-6-methoxy-1H-indazol-3-yl)pyrimidin-2-yl)-3-methylazetidin-3-yl)methyl)propan-2-amine] | 1 to 50 nM | 1 to 50 nM | 1 to 50 nM | 1 to 50 nM | 1 to 50 nM |  | 
11 | CC[C@]1(N)CCN(c2ccc(-c3n[nH]c4ccc(O[C@H](C)c5c(Cl)cncc5Cl)cc34)nn2)C1 [Example 403, (S)-1-(6-(5-((R)-1-(3,5-dichloropyridin-4-yl)ethoxy)-1H-indazol-3-yl)pyridazin-3-yl)-3-ethylpyrrolidin-3-amine] |  |  |  |  |  | 1 to 50 nM | 1 to 50 nM
12 | C[C@@H](Oc1ccc2[nH]nc(-c3cnc(N4CC[C@](N)(c5ccnn5C)C4)c(F)c3)c2c1)c1c(Cl)cncc1Cl [Example 404, (R)-1-(5-(5-((R)-1-(3,5-dichloropyridin-4-yl)ethoxy)-1H-indazol-3-yl)-3-fluoropyridin-2-yl)-3-(1-methyl-1H-pyrazol-5-yl)pyrrolidin-3-amine] |  |  |  |  |  | 1 to 50 nM | 1 to 50 nM
13 | C[C@@H](Oc1ccc2[nH]nc(-c3cnc(N4CC[C@@](N)(c5ccnn5C)C4)c(F)c3)c2c1)c1c(Cl)cncc1Cl [Example 405, (S)-1-(5-(5-((R)-1-(3,5-dichloropyridin-4-yl)ethoxy)-1H-indazol-3-yl)-3-fluoropyridin-2-yl)-3-(1-methyl-1H-pyrazol-5-yl)pyrrolidin-3-amine] |  |  |  |  |  | 1 to 50 nM | 1 to 50 nM
14 | C[C@@H](Oc1ccc2[nH]nc(-c3ccc(N4CC[C@@](C)(N)C4)nn3)c2c1)c1c(Cl)cncc1Cl [Example 406, (R)-1-(6-(5-((R)-1-(3,5-dichloropyridin-4-yl)ethoxy)-1H-indazol-3-yl)pyridazin-3-yl)-3-methylpyrrolidin-3-amine] |  |  |  |  |  | 1 to 50 nM | 1 to 50 nM
15 | C[C@@H](Oc1ccc2[nH]nc(-c3ccc(N4CC[C@](C)(N)C4)nn3)c2c1)c1c(Cl)cncc1Cl [Example 407, (S)-1-(6-(5-((R)-1-(3,5-dichloropyridin-4-yl)ethoxy)-1H-indazol-3-yl)pyridazin-3-yl)-3-methylpyrrolidin-3-amine] |  |  |  |  |  | 1 to 50 nM | 1 to 50 nM
16 | C[C@@H](Oc1ccc2[nH]nc(-c3cnc(N4CC(N)(CS(C)(=O)=O)C4)c(F)c3)c2c1)c1c(Cl)cncc1Cl [Example 412, 1-[5-[5-[(1R)-1-(3,5-dichloro-4-pyridyl)ethoxy]-1H-indazol-3-yl]-3-fluoro-2-pyridyl]-3-(methylsulfonyl-methyl)azetidin-3-amine] |  |  |  |  |  | 1 to 50 nM | 1 to 50 nM
17 | C[C@@H](Oc1ccc2[nH]nc(-c3ccc(N4CC[C@@](N)(c5ccnn5C)C4)nn3)c2c1)c1c(Cl)cncc1Cl [Example 417, (S)-1-(6-(5-((R)-1-(3,5-dichloropyridin-4-yl)ethoxy)-1H-indazol-3-yl)pyridazin-3-yl)-3-(1-methyl-1H-pyrazol-5-yl)pyrrolidin-3-amine] |  |  |  |  |  | 1 to 50 nM | 1 to 50 nM
18 | C[C@@H](Oc1ccc2[nH]nc(-c3ccc(N4CC[C@](N)(Cc5ccnn5C)C4)nn3)c2c1)c1c(Cl)cncc1Cl [Example 424, (S)-1-(6-(5-((R)-1-(3,5-dichloropyridin-4-yl)ethoxy)-1H-indazol-3-yl)pyridazin-3-yl)-3-((1-methyl-1H-pyrazol-5-yl)methyl)pyrrolidin-3-amine] |  |  |  |  |  | 1 to 50 nM | 1 to 50 nM
19 | C[C@@H](Oc1ccc2[nH]nc(-c3ccc(N4CC[C@@](N)(Cc5ccnn5C)C4)nn3)c2c1)c1c(Cl)cncc1Cl [Example 425, (R)-1-(6-(5-((R)-1-(3,5-dichloropyridin-4-yl)ethoxy)-1H-indazol-3-yl)pyridazin-3-yl)-3-((1-methyl-1H-pyrazol-5-yl)methyl)pyrrolidin-3-amine] |  |  |  |  |  | 1 to 50 nM | 1 to 50 nM
20 | C[C@@H](Oc1ccc2[nH]nc(-c3ccc(N4CC[C@](N)(Cc5ccn(C)n5)C4)nn3)c2c1)c1c(Cl)cncc1Cl [Example 426, (S)-1-(6-(5-((R)-1-(3,5-dichloropyridin-4-yl)ethoxy)-1H-indazol-3-yl)pyridazin-3-yl)-3-((1-methyl-1H-pyrazol-3-yl)methyl)pyrrolidin-3-amine] |  |  |  |  |  | 1 to 50 nM | 1 to 50 nM
21 | C[C@@H](Oc1ccc2[nH]nc(-c3ccc(N4CC[C@@](N)(Cc5ccn(C)n5)C4)nn3)c2c1)c1c(Cl)cncc1Cl [Example 427, (R)-1-(6-(5-((R)-1-(3,5-dichloropyridin-4-yl)ethoxy)-1H-indazol-3-yl)pyridazin-3-yl)-3-((1-methyl-1H-pyrazol-3-yl)methyl)pyrrolidin-3-amine] |  |  |  |  |  | 1 to 50 nM | 1 to 50 nM
22 | C[C@@H](Oc1ccc2[nH]nc(-c3cnc(N4CC[C@](N)(Cc5ccn(C)n5)C4)c(F)c3)c2c1)c1c(Cl)cncc1Cl [Example 428, (S)-1-(5-(5-((R)-1-(3,5-dichloropyridin-4-yl)ethoxy)-1H-indazol-3-yl)-3-fluoropyridin-2-yl)-3-((1-methyl-1H-pyrazol-3-yl)methyl)pyrrolidin-3-amine] |  |  |  |  |  | 1 to 50 nM | 1 to 50 nM
